The record followed here is PMC6202380 (2018).

Assay [1] concerns F-CEB25^L111-T (DNA, G4) AAGGGTGGGTGGGTGGGT
Kind of assay: FRET melting. Particulars: 1 mM K+, 99 mM Li+; 10 mM LiAsO2Me2, pH 7.2 (K-1); 0.2 µM DNA, 1 µM ligand.

For assay [2], the system named is 22AG (DNA, G4) AGGGTTAGGGTTAGGGTTAGGG
In words: CD spectroscopy. As to conditions: 100 mM K+; K-100 buffer, pH 7.2, 20 °C; 5 µM DNA, 10 µM ligand.

Assay [3] deals with hras-1 (DNA, G4) TCGGGTTGCGGGCGCAGGGCACGGGCG
In words: CD spectroscopy. Particulars: 100 mM K+; K-100 buffer, pH 7.2, 20 °C; 5 µM DNA, 10 µM ligand.

The subject of assay [4] is 22CTA (DNA, G4) AGGGCTAGGGCTAGGGCTAGGG
Kind of assay: fluorimetric titration, independent-site model. As to conditions: 100 mM K+; 10 mM LiAsO2Me2, pH 7.2 (K-100); 2 µM ligand.

Assay [5] has as its system bcl2Mid (DNA, G4) GGGCGCGGGAGGAATTGGGCGGG
In words: fluorimetric titration, independent-site model. As to conditions: 100 mM K+; 10 mM LiAsO2Me2, pH 7.2 (K-100); 2 µM ligand.

In assay [6] the test system is hras-1 (DNA, G4) TCGGGTTGCGGGCGCAGGGCACGGGCG
In words: fluorimetric titration, independent-site model. Particulars: 100 mM K+; 10 mM LiAsO2Me2, pH 7.2 (K-100); 2 µM ligand.

Assay [7] deals with ds26 (DNA, duplex) CAATCGGATCGAATTCGATCCGATTG
Kind of assay: fluorimetric titration, independent-site model. Particulars: 100 mM K+; 10 mM LiAsO2Me2, pH 7.2 (K-100); 2 µM ligand.

Assay [8] relates to Pu24T (DNA, G4) TGAGGGTGGTGAGGGTGGGGAAGG
Kind of assay: fluorimetric titration, independent-site model. As to conditions: 100 mM K+; 10 mM LiAsO2Me2, pH 7.2 (K-100); 2 µM ligand.

Assay [9] concerns 22AG (DNA, G4) AGGGTTAGGGTTAGGGTTAGGG
In words: fluorimetric titration, independent-site model. Particulars: 2 µM ligand.

Assay [10] relates to ^BrU-22AG (DNA, G4, 5-bromouracil (replacing T) at 5, 6, 11, 12, 17, 18) AGGGTTAGGGTTAGGGTTAGGG
Kind of assay: PAGE of UVA photoadduct. Particulars: 100 mM K+; covalent; K-100 buffer, pH 7.2; 5 µM DNA, 25 µM ligand, 365 nm.

The subject of assay [11] is CEB25^L111 (DNA, G4) AAGGGTGGGTGGGTGGGT
Kind of assay: fluorimetric titration, independent-site model. Particulars: 100 mM K+; K-100 buffer, pH 7.2; 2 µM ligand; value from text, Table 2 prints 1.5 for this oligonucleotide.

Assay [12] deals with CEB25^WT (DNA, G4) AAGGGTGGGTGTAAGTGTGGGTGGGT
Kind of assay: fluorimetric titration, independent-site model. As to conditions: 100 mM K+; K-100 buffer, pH 7.2; 2 µM ligand; Table 2 prints 0.54, text gives 0.54 to CEB25^L111.

Assay [13] deals with 22AG (DNA, G4) AGGGTTAGGGTTAGGGTTAGGG
Kind of assay: fluorimetric titration. Particulars: 100 mM K+; K-100 buffer, pH 7.2; 2 µM ligand; binding constant could not be determined.

In assay [1], `C[n+]1cc(NC(=O)c2ccc3ccc4ccc(C(=O)Nc5cc6ccccc6[n+](C)c5)nc4c3n2)cc2ccccc21` yielded a ΔT½ of 13 °C.

With `NCCCN1CCNCc2ccc3cc(ccc3c2)CNCCOCCNCc2ccc3cc(ccc3c2)CNCC1`, the binding result in assay [2] and in assay [3] was “yes” each time.

Regarding `NCCN(CCN)CCNCCCCc1ccc2ccc3cccc4ccc1c2c34`, the binding result in assay [2] and in [3] was “yes” each time.

Regarding `c1cc2ccc3ccc(CCCCNCCN4CCNCc5ccc6cc(ccc6c5)CNCCN(CCNCCCCc5ccc6ccc7cccc8ccc5c6c78)CCNCc5ccc6cc(ccc6c5)CNCC4)c4ccc(c1)c2c34`, the Ka in [4] turned out to be 3.9e+06 M⁻¹; in assay [5], 1.8e+06 M⁻¹; in assay [6], 1.1e+06 M⁻¹; in [7] it was 480000 M⁻¹; in assay [8], 1.5e+06 M⁻¹; in assay [9] (100 mM K+, 10 mM LiAsO2Me2, pH 7.2 (K-100)), 1.8e+06 M⁻¹. Moreover, the Ka in assay [9] (100 mM Na+, 10 mM LiAsO2Me2, pH 7.2 (Na-100)) was 1.4e+06 M⁻¹; in [11] it was 540000 M⁻¹; in [12] it was 0.54 10^6 M^-1. In addition, the binding result in assay [10] is “yes”. The compound also registered a ΔT½ in [1] of 11 °C.

For the compound `c1cc2ccc3ccc(CCCCNCCN4CCNCc5ccc6cc(ccc6c5)CNCCOCCNCc5ccc6cc(ccc6c5)CNCC4)c4ccc(c1)c2c34`, the binding result in [13], in [10] and in assay [3] was “yes” each time.
